Among the data in the METLIN SMRT retention time set (Domingo-Almenara et al. 2019) are RP-LC retention time values, retold here.

This data set in a line: gradient 5% acetonitrile 3 min, to 50% in 2 min, to 85% in 15 min, held 3 min, 100 µL/min. Conditions: column: Zorbax Extend-C18 2.1 x 50 mm; eluents: water / acetonitrile, 0.1% formic acid. The method in brief: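 Data were gathered over 3 months by HPLC coupled to a quadrupole time-of-flight mass spectrometer, operated in positive and negative ionization mode. Mixtures of ~100 pure standards ran on a Zorbax Extend-C18 column (2.1 × 50 mm, 1.8 μm) at 100 μL/min, with water and acetonitrile each containing 0.1% formic acid and dead and dwell volumes of 40 μL and 900 μL. Retention time was read from adduct peaks picked by computer and checked manually.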
Compound `C[C@H](C(=O)O)c1cccc(C(=O)c2ccccc2)c1` returned an RP-LC retention time of 866 s.

Compound `COc1cc(Cl)ccc1-c1nc(-c2ccc3c(c2)ncn3CCC(=O)N2CCCC2)no1` yielded an RP-LC retention time of 786 s.

`Cc1cccc(Cn2c(=O)n(CCNC(=O)C3(c4ccccc4)CC3)c3ncccc32)c1`: the RP-LC retention time was found to be 953 s.

`Cc1nnc(-c2ccc3ccn(CC(=O)N4CCN(Cc5ccc6c(c5)OCO6)CC4)c3c2)o1` showed an RP-LC retention time of 651 s.

As to `CCC(=O)NCCc1csc(C2CCCN(C(=O)C(C)(C)C)C2)n1` (stereo not given), the RP-LC retention time was found to be 685 s.

Take `COc1ccc(OC)c(NC(=O)c2cc3nc(-c4cccs4)cc(C(F)(F)F)n3n2)c1`: the RP-LC retention time was 1200 s.

Compound `CN1c2ccc(F)cc2C(=O)NC12CCN(C(=O)c1ccc(F)cc1)CC2` registered an RP-LC retention time of 769 s.

For the compound `Cc1ccc(-c2cc(C(=O)N3CCOCC3)nn2C2CCS(=O)(=O)C2)cc1C` (stereo not given), the RP-LC retention time came to 780 s.

With `CCS(=O)(=O)N1CCCc2cc(C(=O)Nc3cc(OC)ccc3OC)ccc21`, the RP-LC retention time was 954 s.

With `Clc1ccc2nc3ccccc3cc2c1`, the RP-LC retention time is 842 s.

The compound `CC(C)n1cnc(S(=O)(=O)N2CCC(C(=O)N3CCN(C(=O)c4ccco4)CC3)CC2)c1` displayed an RP-LC retention time of 636 s.

The compound `O=C(Cn1cccc(S(=O)(=O)N2CCCCCC2)c1=O)N1CCCc2ccccc21` gave an RP-LC retention time of 850 s.

For `COC(=O)c1ccc2c(=O)n(Cc3ccc(F)cc3)c(N3CCN(c4ccccn4)CC3)nc2c1`, the RP-LC retention time was 772 s.

In turn, `CCN(CC)S(=O)(=O)c1cc(-c2nnc(-c3ccc(Br)cc3)o2)ccc1C` yielded an RP-LC retention time of 1230 s.

`CCS(=O)(=O)N1CC(=O)N(c2cccc(Cl)c2C)C(C)(C(=O)NCc2ccc(F)cc2)C1` (stereo not given) yielded an RP-LC retention time of 913 s.

The compound `O=C(c1cccc(OCC2CCCN(C(=O)C3CCCO3)C2)c1)N1CCCC1` (stereo not given) came in with an RP-LC retention time of 718 s.

As for `COc1ccc(-c2nc(C3CC(=O)N(c4ccc(OC)c(OC)c4)C3)no2)cc1F` (stereo not given), the RP-LC retention time is 853 s.

The compound `Cc1ccc(S(=O)(=O)N2CC(F)(F)C[C@H]2CN2CCc3ccccc3C2)c(C)c1` returned an RP-LC retention time of 816 s.

Compound `COc1ccc(Cl)cc1NC(=O)c1cn2c(n1)CCCC2` had an RP-LC retention time of 726 s.

Compound `CCS(=O)(=O)Nc1ccc(C2(C(=O)NCc3cc(F)cc(F)c3)CCCCC2)cc1` displayed an RP-LC retention time of 972 s.

`O=C(NC1CC1)c1cc(-c2cccs2)on1` registered an RP-LC retention time of 788 s.

With `C=CCNC(=O)C1CCCN(C(=O)Nc2ccc(NC(=O)Nc3ccc(C)cc3C)cc2)C1` (stereo not given), the RP-LC retention time amounted to 760 s.

As for `NCCc1noc(-c2ccccc2)n1`, the RP-LC retention time turned out to be 580 s.

Compound `CCCn1cc(CCNC(=O)c2ccnn2CC)c2cccnc21` came in with an RP-LC retention time of 678 s.

As to `CCOc1ccc(-c2nnc(SCC(=O)N3c4ccccc4CC3C)o2)cc1` (stereo not given), the RP-LC retention time was found to be 1110 s.

Take `Cc1ncc2c(n1)CCCN(CC(=O)N1CCCC1)C2=O`: the RP-LC retention time is 579 s.

As for `CCCOC(=O)C1=CN(Cc2ccccc2)S(=O)(=O)N=C1C`, the RP-LC retention time was 1020 s.

Compound `O=C(NC1CCNCC1)c1[nH]ncc1NC(=O)c1c(Cl)cccc1Cl` had an RP-LC retention time of 639 s.

`Cc1cccc(NC(=O)Cn2cnc3c(c2=O)CCCC3)c1` displayed an RP-LC retention time of 706 s.

`COc1cccc(COc2coc(C(=O)Nc3nnc(C)s3)cc2=O)c1` showed an RP-LC retention time of 660 s.

On to `Cc1cc(C(=O)Nc2ccc3nc(N4CCN(C)CC4)cc(C)c3c2)ccc1[N+](=O)[O-]`, for which the RP-LC retention time worked out at 595 s.

As to `Cc1cc(C)n(-c2ccc(C(=O)NC3CCCCC3)cn2)n1`, the RP-LC retention time was 918 s.

The compound `CCn1nc(C)c(-c2cc(C(=O)O)[nH]n2)c1C` came in with an RP-LC retention time of 589 s.

For `CCOC(=O)c1sc2ncnc(N3CCN(c4ccccc4OC)CC3)c2c1C`, the RP-LC retention time stood at 1200 s.

Compound `COc1ccc2cc(C(=O)N3CCN(c4cc(=O)n(C)c(=O)n4C)CC3)[nH]c2c1` gave an RP-LC retention time of 673 s.

As for `c1ccc(-c2noc(-c3nc(-c4ccccn4)no3)n2)cc1`, the RP-LC retention time came out at 958 s.

Compound `CCOC(=O)c1[nH]c(C)c(CCC(=O)N2CCC(C(=O)NCc3ccc(OC)c(OC)c3)CC2)c1C` returned an RP-LC retention time of 700 s.

The compound `COc1ccc(Cl)cc1NC(=O)N1CCC(C(=O)Nc2cc(C)on2)CC1` displayed an RP-LC retention time of 645 s.

`O=C(Nc1cccc(-c2ccc(N3CCOCC3)nn2)c1)Nc1ccccc1F` displayed an RP-LC retention time of 688 s.

Regarding `O=C(Cn1cc(S(=O)(=O)c2ccccc2)c2ccccc21)NCc1ccc2c(c1)OCO2`, the RP-LC retention time turned out to be 829 s.

As for `CC(C)CNC(=O)C1(CCO)CCN(c2ncccn2)C1` (stereo not given), the RP-LC retention time was 584 s.

`CCOC(=O)Cc1sc(Nc2c(C)n[nH]c2C)nc1-c1ccccc1`: the RP-LC retention time was 688 s.

Compound `COc1cccc(-n2ccc(=O)c(-c3nc(-c4cccc(F)c4)no3)n2)c1` gave an RP-LC retention time of 905 s.

Consider `CC(C)CN1C(=O)c2cccn2CC1C(=O)NCC1CC1` (stereo not given), for which the RP-LC retention time was 731 s.

Take `COc1ccc(NC(=O)c2cc(C)n3nccc3n2)cc1Cl`: the RP-LC retention time is 942 s.

As for `CC1CN2C=NC(N3CCN(C(=O)Nc4ccc(C(F)(F)F)cc4)CC3)=CC2=N1` (stereo not given), the RP-LC retention time was determined as 687 s.

Regarding `CCC(=O)Nc1ccc2c(c1)CN(C(=O)CCc1ccccc1)C(C(=O)N1CCCC1)C2` (stereo not given), the RP-LC retention time was 708 s.

Turning to `CCOC(=O)c1nc(Nc2ccc(CC)cc2)c2ccccc2n1`, the RP-LC retention time came out at 932 s.

In turn, `Cc1ccc(S(=O)(=O)c2ccc([N+](=O)[O-])o2)cc1` had an RP-LC retention time of 873 s.

With `Cc1ccc(-n2nc3c(N4CCN(C(=O)NC(C)C)CC4)nnc(C)c3c2C)cc1`, the RP-LC retention time turned out to be 675 s.

Consider `CCN1CCC2(CC1)OC(=O)C(C)=C2C(=O)Nc1ccc(Br)cc1F`, for which the RP-LC retention time was 650 s.

In turn, `Cc1csc(-n2nc(C)c(CC(=O)Nc3cccc(Cl)c3)c2C)n1` returned an RP-LC retention time of 1040 s.

Consider `COc1cccc(N2CCN(c3ccnc(SCC(=O)Nc4cccc(Cl)c4)n3)CC2)c1`, for which the RP-LC retention time is 827 s.

`COC(=O)c1ccc(-c2nc3cnccn3c2Nc2cccc(C(=O)OC)c2)cc1` gave an RP-LC retention time of 822 s.

Consider `CCOc1ccc(NC(=O)c2oc3cc(Br)ccc3c2C)c2cccnc12`, for which the RP-LC retention time was found to be 800 s.

Regarding `CC(C)NC(=O)C1CCCN(C(=O)Nc2ccc(NC(=O)Nc3ccc(F)cc3)cc2)C1` (stereo not given), the RP-LC retention time amounted to 714 s.

For `COc1ccc(C2CC(=O)N(c3ccc(C(C)C)cc3)C(=O)C2)cc1`, the RP-LC retention time came to 1030 s.

In turn, `Cc1nc(N2CCN(c3ccccn3)CC2)nc2oc(-c3ccccc3)nc12` had an RP-LC retention time of 755 s.

`COc1cc(OC)c(OC)cc1CN1CC[C@]2(CO)CN(Cc3ccccc3)C[C@@H]2C1`: the RP-LC retention time was found to be 597 s.

In turn, `O=C(Nc1ccccc1Cl)N1CCN(c2cnn3cnnc3c2)CC1` displayed an RP-LC retention time of 625 s.
